Assays:
Type in all cases: in vivo
[1] = tested on: Siha (human cervical cancer) xenografts; assay: Siha xenograft growth inhibition; conditions: ITE 100-200 mg/kg i.p. once daily
Description: (§1) All the procedures related to animal handling, care, and the treatment in the study were performed following guidelines of KeyGen Biotechn Co., Ltd. (Nanjing, China), a contract research organization we hired, based on the guidance of the Association for Assessment and Accreditation of Laboratory Animal Care (AAALAC). Animals were checked for any effects of tumor growth and drug treatment on normal behavior such as mobility, food and water consumption, body weight gain/loss (bodyweights were measured every two days), eye/hair matting, and any other abnormal effect. Death and observed clinical signs were recorded. Individual animals with a tumor volume exceeding 3,000 mm^3 or animals of a group with a mean tumor volume exceeding 2,000 mm^3 were euthanized. In addition, animals showing signs of severe distress and/or pain or losing the capability of accessing adequate food or water were humanely sacrificed.
(§2) Cell lines HCT116, Siha, MFC were cultured in DMEM medium (high glucose) supplemented with 10% fetal bovine serum (FBS), SW116 and T24 in RPMI-1640 medium with 10% FBS, M14 and A375 in DMEM medium (high glucose) with 10% calf serum (CS), SGC7901 and Ketr-3 in RPMI-1640 medium with 10% CS, and CFPAC-1 in IMDM medium with 10% FBS. All of the cells were cultured, in the presence of 100 U/ml penicillin and 100 μg/ml streptomycin, at 37° C. in an atmosphere of 5% CO2 in air. […] The cells growing in an exponential phase were harvested and counted for tumor inoculation. Cell lines 5180 and U14 were maintained in ascites (peritoneal cavity fluid) of mice and were harvested and counted for tumor inoculation. […]
(§3) Tumor volume was measured every two days in two dimensions using a caliper and the volume was calculated with a formula of: V=0.5 a×b^2, where a and b are the long and short diameter (in mm) of a tumor, respectively. […] The TGD was calculated as: TGD=T−C, where T was the time (in days) required for tumors in a drug treated group to reach a predetermined mean tumor volume and C the time (in days) in the control group to reach the same volume. […]

[2] = tested on: T24 (Human bladder cancer) xenografts; assay: T24 xenograft growth inhibition; conditions: ITE 100-200 mg/kg i.p. once daily
Description: as §1, §2, §3

[3] = tested on: Ketr-3 (human kidney cancer) xenografts; assay: Ketr-3 xenograft growth inhibition; conditions: ITE 100-200 mg/kg i.p. once daily
Description: as §1, §2, §3

[4] = tested on: M14 (human skin cancer) xenografts; assay: M14 xenograft growth inhibition; conditions: ITE 100-200 mg/kg i.p. once daily
Description: as §1, §2, §3

[5] = tested on: S180 (mouse soft tissue cancer/sarcoma) homografts; assay: S180 homograft (syngeneic) growth inhibition in ICR mice; conditions: ITE 200 mg/kg i.p. once daily
Description: as §1, §2, §3

[6] = tested on: CFPAC-1 (human pancreatic cancer) xenografts; assay: CFPAC-1 xenograft growth inhibition; conditions: ITE 100-200 mg/kg i.p. once daily
Description: as §1, §2, §3

[7] = end of therapy relative to beginning
[8] = TGI at day 26, TGI=(1−ΔT/ΔC)×100%

Question: For COC(=O)c1csc(C(=O)c2c[nH]c3ccccc23)n1 [ITE, 2-(1′H-indole-3′-carbonyl)-thiazole-4-carboxylic acid methyl ester], which TGD ([1]; TGD at Vol. 1,000) is on record?
Answer: 7 days

Question: And the “TGI (%)” value ([1]; TGI at day 24, TGI=(1−ΔT/ΔC)×100%)?
Answer: 53%

Question: What about the “Weight Loss” value [1, 7] of the same compound?
Answer: 19%

Question: What about the TGD ([2]; TGD at Vol. 1,000) of the same compound?
Answer: 9 days

Question: And the “TGI (%)” value [2, 8]?
Answer: 66%

Question: What about the “Weight Loss” value [2, 7] of the same compound?
Answer: 13%

Question: And the TGD ([3]; TGD at Vol. 500)?
Answer: 9 days

Question: And the “TGI (%)” value ([3]; TGI at day 28, TGI=(1−ΔT/ΔC)×100%)?
Answer: 74%

Question: And the “Weight Loss” value [3, 7]?
Answer: 13%

Question: And the TGD ([4]; TGD at Vol. 1,000)?
Answer: 5 days

Question: What about the “TGI (%)” value [4, 8] of the same compound?
Answer: 48%

Question: What about the “Weight Loss” value [4, 7] of the same compound?
Answer: 15%

Question: What about the TGD ([5]; TGD at Vol. 2,000) of the same compound?
Answer: 1.5 days

Question: What about the “TGI (%)” value ([5]; TGI at day 8, TGI=(1−ΔT/ΔC)×100%) of the same compound?
Answer: 33%

Question: And the “Weight Loss” value [5, 7]?
Answer: 9%

Question: And the TGD ([6]; TGD at Vol. 1,000)?
Answer: 8 days

Question: And the “TGI (%)” value [6, 8]?
Answer: 58%

Question: And the “Weight Loss” value [6, 7]?
Answer: 14%
